Experimental data taken from PubChem BioAssay (NCI).
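Method: 48-hour compound exposure of cells in 96-well plates, five concentrations, linear interpolation of endpoints. TGI: concentration producing complete growth inhibition.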 Where a SMILES comes first, the peptide text is derived from it. The star is where a group is joined. Cbz = O=C(OCc1ccccc1)*; CH2Cl = ClC*

Experiments:
Test in all cases: growth of human tumour cells (NCI), 48 h
[1] = system: SF-295 CNS
[2] = system: NCI-H460 lung
[3] = system: SF-268 CNS
[4] = system: OVCAR-4 ovarian
[5] = system: HCT-15 colon
[6] = system: U251 CNS
[7] = system: MCF7 breast
[8] = system: IGROV1 ovarian
[9] = system: MDA-MB-231 breast
[10] = system: DU-145 prostate
[11] = system: ACHN renal
[12] = system: HS 578T breast
[13] = system: UO-31 renal
[14] = system: SR leukemia
[15] = system: NCI-H522 lung
[16] = system: LOX IMVI melanoma
[17] = system: CAKI-1 renal
[18] = system: OVCAR-5 ovarian
[19] = system: HT29 colon
[20] = system: HL-60(TB) leukemia
[21] = system: A498 renal
[22] = system: BT-549 breast
[23] = system: T-47D breast
[24] = system: SN12C renal
[25] = system: UACC-257 melanoma
[26] = system: HOP-92 NSCLC
[27] = system: KM12 colon
[28] = system: UACC-62 melanoma
[29] = system: K-562 leukemia
[30] = system: MOLT-4 leukemia
[31] = system: COLO 205 colon
[32] = system: A549 NSCLC
[33] = system: SK-MEL-5 melanoma
[34] = system: RPMI-8226 leukemia
[35] = system: EKVX NSCLC
[36] = system: OVCAR-8 ovarian
[37] = system: SW-620 colon
[38] = system: CCRF-CEM leukemia
[39] = system: MDA-N
[40] = system: SK-MEL-2 melanoma
[41] = system: RXF 393 renal
[42] = system: MALME-3M melanoma
[43] = system: 786-0 renal
[44] = system: HCC-2998 colon
[45] = system: SF-539 CNS
[46] = system: PC-3 prostate
[47] = system: SK-OV-3 ovarian
[48] = system: HOP-62 NSCLC
[49] = system: HCT-116 colon
[50] = system: OVCAR-3 ovarian
[51] = system: SNB-19 CNS
[52] = system: TK-10 renal
[53] = system: SK-MEL-28 melanoma
[54] = system: NCI-H23 lung
[55] = system: SNB-75 CNS
[56] = system: M14 melanoma
[57] = system: NCI/ADR-RES ovarian
[58] = system: MDA-MB-435
[59] = system: DMS 114 small cell lung
[60] = system: M19-MEL melanoma
[61] = system: LXFL 529 NSCLC
[62] = system: DMS 273 small cell lung
[63] = system: DLD-1 colon
[64] = system: KM20L2 colon
[65] = system: HOP-18 NSCLC
[66] = system: NCI-H226 lung

Structure (SMILES): COc1cc(C2c3cc4c(cc3OC3(OC)COC(=O)C23)OCO4)cc(OC)c1OC(C)=O (stereo unspecified)
- TGI [1]: 5.38 µM
- TGI [2]: > 59.7 µM
- TGI [3]: > 100 µM
- TGI [4]: > 100 µM
- TGI [5]: > 100 µM
- TGI [6]: > 100 µM
- TGI [7]: > 36.4 µM
- TGI [8]: > 100 µM
- TGI [9]: > 100 µM
- TGI [10]: > 100 µM
- TGI [11]: > 100 µM
- TGI [12]: > 100 µM
- TGI [13]: > 100 µM
- TGI [14]: > 31.6 µM
- TGI [15]: 2.43 µM
- TGI [16]: > 82.2 µM
- TGI [17]: > 100 µM
- TGI [18]: > 41.4 µM
- TGI [19]: > 37.5 µM
- TGI [20]: 12.8 µM
- TGI [21]: 97.4 µM
- TGI [22]: > 100 µM
- TGI [23]: > 100 µM
- TGI [24]: > 100 µM
- TGI [25]: > 100 µM
- TGI [26]: > 100 µM
- TGI [27]: > 100 µM
- TGI [28]: > 100 µM
- TGI [29]: > 100 µM
- TGI [30]: > 100 µM
- TGI [31]: > 49.3 µM
- TGI [32]: > 100 µM
- TGI [33]: 34.6 µM
- TGI [34]: > 100 µM
- TGI [35]: > 100 µM
- TGI [36]: > 75.2 µM
- TGI [37]: > 100 µM
- TGI [38]: > 100 µM
- TGI [39]: 2.55 µM
- TGI [40]: > 100 µM
- TGI [41]: 7.49 µM
- TGI [42]: > 100 µM
- TGI [43]: > 100 µM
- TGI [44]: 14.3 µM
- TGI [45]: 2.25 µM
- TGI [46]: > 36.1 µM
- TGI [47]: > 100 µM
- TGI [48]: 31.7 µM
- TGI [49]: 38.7 µM
- TGI [50]: > 36.2 µM
- TGI [51]: > 100 µM
- TGI [52]: > 100 µM
- TGI [53]: > 100 µM
- TGI [54]: > 100 µM
- TGI [55]: > 62.9 µM
- TGI [56]: > 74.2 µM
- TGI [57]: 10.4 µM
- TGI [58]: 2.23 µM

Structure (SMILES): C1=CC(N(c2ccccc2)C2C=CCCC2)CCC1 (stereo unspecified)
- TGI [1]: > 100 µM
- TGI [59]: > 100 µM
- TGI [2]: > 100 µM
- TGI [60]: > 100 µM
- TGI [3]: > 100 µM
- TGI [5]: > 100 µM
- TGI [6]: > 100 µM
- TGI [8]: > 100 µM
- TGI [11]: > 100 µM
- TGI [15]: > 100 µM
- TGI [61]: > 100 µM
- TGI [16]: > 100 µM
- TGI [17]: > 100 µM
- TGI [19]: > 100 µM
- TGI [20]: > 100 µM
- TGI [21]: > 100 µM
- TGI [24]: > 100 µM
- TGI [26]: > 100 µM
- TGI [28]: > 100 µM
- TGI [29]: > 100 µM
- TGI [31]: > 100 µM
- TGI [62]: > 100 µM
- TGI [32]: > 100 µM
- TGI [33]: > 100 µM
- TGI [34]: > 100 µM
- TGI [35]: > 100 µM
- TGI [36]: > 100 µM
- TGI [37]: > 100 µM
- TGI [38]: > 100 µM
- TGI [63]: > 100 µM
- TGI [41]: > 100 µM
- TGI [43]: > 100 µM
- TGI [45]: > 100 µM
- TGI [64]: > 100 µM
- TGI [47]: > 100 µM
- TGI [49]: > 100 µM
- TGI [52]: > 100 µM
- TGI [53]: > 100 µM
- TGI [54]: > 100 µM
- TGI [56]: > 100 µM
- TGI [65]: > 100 µM

Structure (SMILES): CN1CCN(C(=S)N2CCN(C)CC2)CC1
- TGI [1]: > 100 µM
- TGI [2]: > 21.8 µM
- TGI [3]: > 100 µM
- TGI [4]: > 100 µM
- TGI [5]: > 100 µM
- TGI [6]: > 100 µM
- TGI [7]: > 37.3 µM
- TGI [8]: > 100 µM
- TGI [9]: > 100 µM
- TGI [10]: > 100 µM
- TGI [11]: > 100 µM
- TGI [12]: > 100 µM
- TGI [13]: > 100 µM
- TGI [14]: 0.983 µM
- TGI [15]: > 45.6 µM
- TGI [16]: > 100 µM
- TGI [17]: > 100 µM
- TGI [18]: > 100 µM
- TGI [19]: 5.86 µM
- TGI [20]: > 100 µM
- TGI [21]: > 100 µM
- TGI [22]: > 100 µM
- TGI [23]: > 100 µM
- TGI [24]: > 100 µM
- TGI [25]: > 100 µM
- TGI [26]: > 100 µM
- TGI [27]: > 100 µM
- TGI [28]: > 100 µM
- TGI [29]: > 100 µM
- TGI [30]: > 100 µM
- TGI [31]: 9.45 µM
- TGI [32]: > 100 µM
- TGI [33]: > 100 µM
- TGI [34]: > 76.7 µM
- TGI [35]: > 100 µM
- TGI [36]: > 100 µM
- TGI [37]: > 100 µM
- TGI [66]: > 100 µM
- TGI [39]: > 100 µM
- TGI [40]: > 100 µM
- TGI [41]: > 100 µM
- TGI [42]: > 100 µM
- TGI [43]: > 100 µM
- TGI [44]: > 100 µM
- TGI [45]: 45.3 µM
- TGI [46]: > 100 µM
- TGI [47]: > 100 µM
- TGI [48]: > 100 µM
- TGI [49]: > 100 µM
- TGI [50]: > 100 µM
- TGI [51]: > 100 µM
- TGI [52]: > 100 µM
- TGI [53]: > 100 µM
- TGI [54]: > 100 µM
- TGI [55]: > 26.3 µM
- TGI [56]: > 100 µM
- TGI [57]: > 100 µM
- TGI [58]: > 100 µM

Structure (SMILES): CC(C)CC(NC(=O)OCc1ccccc1)C(=O)NC(Cc1ccccc1)C(=O)CCl (stereo not drawn) (Cbz-Leu-Phe-CH2Cl; configuration not given here)
- TGI [1]: 43.7 µM
- TGI [2]: 18 µM
- TGI [3]: 9.88 µM
- TGI [4]: 4.69 µM
- TGI [5]: 3.34 µM
- TGI [6]: 22 µM
- TGI [7]: 7.85 µM
- TGI [8]: 4.11 µM
- TGI [9]: 3.3 µM
- TGI [10]: > 100 µM
- TGI [11]: 11.3 µM
- TGI [12]: 25.7 µM
- TGI [13]: 18.2 µM
- TGI [14]: 4.66 µM
- TGI [15]: 2.74 µM
- TGI [16]: 2.08 µM
- TGI [17]: 12.5 µM
- TGI [18]: 15.3 µM
- TGI [19]: 7.54 µM
- TGI [20]: 3.53 µM
- TGI [21]: 71.2 µM
- TGI [22]: 6.16 µM
- TGI [23]: 4.89 µM
- TGI [24]: 3.39 µM
- TGI [25]: 23.7 µM
- TGI [26]: 3.73 µM
- TGI [27]: 35.3 µM
- TGI [28]: 7.82 µM
- TGI [29]: 6.77 µM
- TGI [30]: 4.33 µM
- TGI [31]: 8.44 µM
- TGI [32]: 39.4 µM
- TGI [33]: 3.5 µM
- TGI [34]: 5.15 µM
- TGI [35]: 34.5 µM
- TGI [36]: 5.11 µM
- TGI [37]: 3.94 µM
- TGI [66]: 3.98 µM
- TGI [38]: 0.776 µM
- TGI [39]: 3.19 µM
- TGI [40]: 7.37 µM
- TGI [41]: 3.3 µM
- TGI [42]: 4.16 µM
- TGI [43]: 3.08 µM
- TGI [44]: 26.1 µM
- TGI [45]: 10.2 µM
- TGI [46]: 9.41 µM
- TGI [47]: 16.1 µM
- TGI [48]: 30.5 µM
- TGI [49]: 3.31 µM
- TGI [50]: 8.26 µM
- TGI [51]: > 56.8 µM
- TGI [52]: 3.24 µM
- TGI [53]: 3.97 µM
- TGI [54]: 4.9 µM
- TGI [55]: 9.32 µM
- TGI [56]: 3.45 µM
- TGI [57]: 11.4 µM
- TGI [58]: 6.56 µM
